# From patent US20080163390A1, “METHODS AND COMPOSITIONS FOR PROVIDING SA-INDEPENDENT PATHOGEN RESISTANCE IN PLANTS” (UNIVERSITY OF KENTUCKY RESEARCH FOUNDATION, priority 2007, published 2008)
# What was measured:
# [1] = tested on: Turnip Crinkle Virus (TCV); test: TCV replication and systemic spread after 18:1 infiltration of leaves; assay type: in vivo, Arabidopsis
# Source text: (A) RT-PCR analyses showing basal level expression of HRT in HRT ssi2 act1 and HRT ssi2 gly1 plants. The level of β-tubulin was used as an internal control to normalize the amount of cDNA template. The 18:1 levels are a mean of six independent replicates. (B) Systemic spread of TCV to uninoculated tissue in TCV-inoculated plants. RNA was extracted from the uninoculated tissues at 18 dpi and analyzed for the presence of the viral transcripts (TCV-U). Ethidium bromide staining of rRNA was used as a loading control. (C) Typical morphological phenotypes of mock-and TCV-inoculated HRT ssi2 act1 and HRT ssi2 gly1 plants. […] Plants were photographed at 8 dpi. (D) Effect of 18:1 infiltrations on viral replication in the inoculated leaf. Oleic acid (O, 1 mM) or water (W) was injected 24 h before or after (last two lanes) TCV inoculation and the samples were harvested 3 days post inoculation (dpi).
# (§1) Pathogen inoculations. Transcripts synthesized in vitro from a cloned cDNA of TCV using T7 RNA polymerase were used for viral infections. For inoculations, the viral transcript was suspended at a concentration of 0.05 μg/μl in inoculation buffer, and the inoculation was performed. After viral inoculations, the plants were transferred to a Conviron MTR30 reach-in chamber maintained at 22° C., 65% relative humidity and 14 hour photoperiod. Inoculations with Pseudomonas syringae were conducted.
# Fatty acid analysis and oleic acid infiltration. Fatty acid analysis was carried out using gas chromatorgraphy. Oleic acid (Sigma) was dissolved in water and injected into leaves using a needle-less syringe. To determine the 18:1 concentration required to elevate the leaf 18:1 content in ssi2 plants to wild-type levels, 50 μm to 10 mM were injected into ssi2 leaves followed by fatty acid profiling. A concentration of 500 μm to 1 mM was considered optimal, with similar results being obtained upon injection of either of these concentrations.
# RNA extraction, RT-PCR and northern analyses. Small-scale extraction of RNA from one or two leaves was performed in the TRIzol reagent (Invitrogen, Gaihersburg, Md.) following the manufacturer's instructions. RNA quality and concentration were determined by gel electrophoresis and determination of A260. Northern blot analysis and synthesis of random primed probes for PR-1 were carried out. Reverse transcription (RT) and first strand cDNA synthesis was carried out using Superscript II (Invitrogen). Two-to-three independent RNA preparations were used for RT-PCR and each of these were analyzed at least twice by RT-PCR. The RT-PCR was carried out for 35 cycles in order to determine absolute levels of transcripts. The number of amplification cycles was reduced to 22-25 in order to evaluate and quantify any differences among transcript levels before they reached saturation. […]
# 18:1 content = test: Fatty acid analysis of leaf 18:1 content (gas chromatography); assay type: in vivo, Arabidopsis
# Source text: FIG. 6A-B depicts an abbreviated scheme for lipid biosynthesis and in plant oleic acid levels after 18:1 infiltrations. (A) De novo fatty acid (FA) synthesis occurs exclusively in the plastids of all plant cells and leads to the synthesis of palmitic acid (16:0)-acyl carrier protein (ACP) and oleic acid (18:1)-ACP. These FAs enter glycerolipid synthesis either via the prokaryotic pathway in the inner envelope of chloroplasts or are exported out of plastids as CoA thioesters to enter the eukaryotic glycerolipid synthesis pathway. Symbols for various components are: CoA, coenzyme A; Lyso-PA, acyl-G3P; PA, phosphatidic acid; PG, phosphatidylglycerol; MGDG, monogalactosyldiacylglycerol; DGDG, digalactosyldiacylglycerol; SL, sulfolipid; DAG, diacylglycerol; DHAP, dihydroxyacetone phosphate. (B) In planta oleic acid levels after 18:1 infiltrations. The HRT ssi2 sid2 leaves were infiltrated with water or 1 mM oleic acid and the fatty acid levels were determined 24 h post treatment from treated and untreated leaves. The 18:1 levels from the untreated wild type plant (HRT) were used as a control.
# Fatty acid analysis and oleic acid infiltration. Fatty acid analysis was carried out using gas chromatorgraphy. Oleic acid (Sigma) was dissolved in water and injected into leaves using a needle-less syringe. […]
# [2] = tested on: Turnip Crinkle Virus (TCV); test: TCV resistance after exogenous application of SA or glycerol; assay type: in vivo, Arabidopsis; details: for resistance to TCV (percentage of resistant plants): inoculated 48 h post-treatment, analyzed 3 weeks post-inoculation
# Source text: (§2) (A) PR-1 gene expression and 18:1 content in water (W)- and glycerol (G)-treated plants. Ethidium bromide staining of rRNA was used as a loading control. The 18:1 levels are a mean of six independent replicates. (B) RT-PCR analyses showing expression of HRT and SSI4 genes in water- and glycerol-treated plants shown in A. The level of β-tubulin was used as an internal control to normalize the amount of cDNA template. (C) Visible HR formation in water (W)- and glycerol (G)-treated HRT sid2, HRT pad4 and HRT act1 plants at 3 dpi. (D) Percentage TCV resistant plants obtained after exogenous application of water, SA or glycerol. Wild type (HRT or hrt), HRT sid2, HRT pad4 and HRT act1 plants were inoculated 48 h post-treatment and resistance was analyzed 3-weeks post-inoculation. The number of plants tested are indicated above each bar. Asterisk indicates 100% susceptibility. (E) Systemic spread of TCV to uninoculated tissue in TCV-inoculated plants. RNA was extracted from the uninoculated tissues at 18 dpi and analyzed for the presence of the viral transcripts (TCV-U). Ethidium bromide staining of rRNA was used as a loading control. (F) Typical morphological phenotypes of TCV-inoculated plants that were sprayed either with water (W) or glycerol (G) prior to inoculation. Plants were photographed at 18 dpi.
# as §1
# (§3) SA and glycerol treatments. SA and glycerol treatments were carried out by spraying 500 μM and 50 mM solutions, respectively, prepared in sterile water.
# [3] = tested on: Turnip Crinkle Virus (TCV); details: exogenous SA prior to dark-treatment of Di-17 plants; cited from earlier work
# [4] = tested on: Turnip Crinkle Virus (TCV); test: Visible HR formation to TCV in glycerol-treated plants; assay type: in vivo, Arabidopsis; details: glycerol-treated wild-type, HRT sid2 and HRT pad4 plants; 3 dpi
# Source text: as §2
# Pathogen inoculations. […]
# HRT = HRT transcript levels (RT-PCR) in glycerol-treated plants; assay type: in vivo, Arabidopsis; details: exogenous glycerol
# Source text: as §2, with “Asterisk indicates 100% susceptibility. (E) Systemic spread of TCV to uninoculated tissue in TCV-inoculated plants.” left out, “Ethidium bromide staining of rRNA was used as a loading control. (F) Typical morphological phenotypes of TCV-inoculated plants that were sprayed either with water (W) or glycerol (G) prior to inoculation. Plants were photographed at 18 dpi.” left out
# (§4) RNA extraction, RT-PCR and northern analyses. […] RNA quality and concentration were determined by gel electrophoresis and determination of A260. […] Two-to-three independent RNA preparations were used for RT-PCR and each of these were analyzed at least twice by RT-PCR. […] The number of amplification cycles was reduced to 22-25 in order to evaluate and quantify any differences among transcript levels before they reached saturation.
# SA levels = SA levels after glycerol application; assay type: in vivo, Arabidopsis; details: dependent on functional SID2 protein
# Description: as §3
# Exogenous application of glycerol confers resistance to TCV in an SA-independent but ACT1-dependent manner. Additional evidence supporting a role for 18:1 in regulating HRT gene expression was obtained by glycerol treatment of several genotypes. […] This is because the act1 plants are blocked in the step leading to the acylation of glycerol-3-phosphate with 18:1. […] Since the upregulation of HRT abolishes visible HR to TCV, the development of HR in various glycerol-treated plants was monitored. […] Thus, although the SA-mediated induction of HRT is dependent on PAD4, 18:1-mediated induction of HRT is independent of PAD4.
# PR-1 = PR-1 gene expression (northern analysis) in glycerol-treated plants; assay type: in vivo, Arabidopsis; details: exogenous glycerol
# Source text: as §2, with “Asterisk indicates 100% susceptibility. (E) Systemic spread of TCV to uninoculated tissue in TCV-inoculated plants.” left out, “Ethidium bromide staining of rRNA was used as a loading control. (F) Typical morphological phenotypes of TCV-inoculated plants that were sprayed either with water (W) or glycerol (G) prior to inoculation. Plants were photographed at 18 dpi.” left out
# as §4
smiles,measurement,setting,value
"CCCCCCCC/C=C\CCCCCCCC(=O)O [18:1, oleic acid]",TCV replication in inoculated leaf,[1]; 18:1 infiltrated 24 h after TCV inoculation,remained unaffected
same,increase in amount of TCV transcript in inoculated leaf,"[1]; HRT ssi2 sid2 leaves, 18:1 infiltrated before TCV inoculation",6-8 fold
same,systemic spread of the virus,"[1]; HRT ssi2 sid2 plants, 18:1 injections",did not allow systemic spread of the virus
same,TCV replication (TCV transcript) in the inoculated leaves,"[1]; wild-type Di-17 or Col-0 leaves, 18:1 (1 mM) vs water injected 24 h before TCV inoculation, 3 dpi",did not appear to alter TCV replication
same,18:1 levels after exogenous application of 18:1,"18:1 content; HRT ssi2 sid2, site of infiltration vs untreated leaves, 24 h post treatment",only normalized 18:1 levels locally
"O=C(O)c1ccccc1O [SA, Salicylic acid, reference compound]",resistance to TCV (percentage of resistant plants),[2]; HRT act1 plants,substantial increase
same,resistance to TCV (percentage of resistant plants),[2]; HRT pad4 plants,only a marginal increase
same,dark-triggered susceptibility to TCV,[3],prevents dark-triggered susceptibility
OCC(O)CO [glycerol],visible HR to TCV,[4],developed no visible HR
same,HRT transcript levels,HRT; HRT act1 plants,not in HRT act1
same,HRT transcript levels,"HRT; wild-type, HRT sid2 and HRT pad4 plants",induced HRT transcript levels
same,resistance to TCV (percentage of resistant plants),[2]; Col-0 (hrt) plants,not in HRT act1 or Col-0 plants
same,resistance to TCV (percentage of resistant plants),[2]; HRT act1 plants,not in HRT act1 or Col-0 plants
same,resistance to TCV (percentage of resistant plants),[2]; HRT pad4 plants,significantly enhanced resistance
same,more TCV-resistant plants in comparison to SA pretreatment,"[2]; HRT sid2 plants, glycerol vs SA pretreatment",~30%
same,resistance to TCV (percentage of resistant plants),[2]; HRT sid2 plants,enhanced resistance to TCV
same,SA levels,SA levels,induced high levels of SA
same,18:1 content,"18:1 content; exogenous glycerol (50 mM spray), wild-type, HRT sid2 and HRT pad4 plants",lowered 18:1 content
same,PR-1 gene expression,PR-1; HRT sid2 plants,failed to induce PR-1 gene expression
same,PR-1 gene expression,PR-1; wild-type and HRT pad4 plants,upregulation of PR-1 gene expression
